From ChEMBL document CHEMBL3390848, “Affinity selection and sequence-activity relationships of HIV-1 membrane fusion inhibitors directed at the drug-resistant variants” (Medchemcomm, 2010)
Residues, ends and D or L forms follow the SMILES beside them.

How the values were obtained:
[1] = tested on: Human immunodeficiency virus 1; test: Antiviral activity against HIV1 NL4-3 harboring gp41 D36G mutant infected in human HeLa cells expressing CD4-LTR-beta-gal assessed as inhibition of viral replication after 48 hrs by MAGI assay; format: functional, organism-based
[2] = tested on: Human immunodeficiency virus 1; test: Thermal stability of HIV1 envelope glycoprotein gp41 His-tagged N-terminal heptad repeat N36-drug complex assessed as thermal unfolding transition state by measuring molar ellipticity at 4 to 90 degC by circular dichroic spectra analysis
[3] = tested on: Human immunodeficiency virus 1; test: Binding affinity to HIV1 His-tagged N-terminal heptad repeat of envelope glycoprotein gp41 assessed as recovery of N36-drug complex after 2 hrs by LC-MS analysis; parameters: concentration or dose not given beside the values

Row | Compound | EC50 [1] [nM] | Tm [2] [°C] | Activity [3] [%]
1 | CC[C@H](C)[C@H](NC(=O)[C@H](CC(C)C)NC(=O)[C@H](CCC(=O)O)NC(=O)[C@H](CCC(=O)O)NC(=O)[C@@H](NC(=O)[C@H](CCCCN)NC(=O)[C@H](CCCCN)NC(=O)[C@@H](NC(=O)[C@H](Cc1ccc(O)cc1)NC(=O)[C@H](CCC(=O)O)NC(=O)[C@H](CCC(=O)O)NC(=O)[C@@H](NC(=O)[C@H](CCCCN)NC(=O)[C@H](CCCCN)NC(=O)[C@H](CC(=O)O)NC(=O)[C@H](Cc1c[nH]c2ccccc12)NC(=O)[C@H](CCC(=O)O)NC(=O)[C@H](CCC(=O)O)NC(=O)[C@H](Cc1c[nH]c2ccccc12)NC(C)=O)[C@@H](C)CC)[C@@H](C)O)[C@@H](C)CC)C(=O)N[C@@H](CCCCN)C(=O)N[C@@H](CCCCN)C(=O)N[C@@H](CO)C(=O)N[C@@H](CCC(=O)O)C(=O)N[C@@H](CCC(=O)O)C(=O)N[C@@H](CCSC)C(=O)N[C@@H](CCC(N)=O)C(=O)N[C@@H](CCCCN)C(=O)N[C@@H](CCCCN)C(=O)N[C@@H](CC(N)=O)C(=O)N[C@@H](CCC(=O)O)C(=O)N[C@@H](CCC(=O)O)C(=O)N[C@@H](CCC(=O)O)C(=O)N[C@@H](CC(C)C)C(=O)N[C@@H](CCCCN)C(=O)N[C@@H](CCCCN)C(N)=O (Ac-WEEWDKKIEEYTKKIEELIKKSEEMQKKNEEELKK-NH2) | 2 | 80.2 | 6
2 | CC[C@H](C)[C@H](NC(=O)[C@H](CC(C)C)NC(=O)[C@H](CCC(=O)O)NC(=O)[C@H](CCC(=O)O)NC(=O)[C@@H](NC(=O)[C@H](CCCCN)NC(=O)[C@H](CCCCN)NC(=O)[C@@H](NC(=O)[C@H](Cc1ccc(O)cc1)NC(=O)[C@H](CCC(=O)O)NC(=O)[C@H](CCC(=O)O)NC(=O)[C@@H](NC(=O)[C@H](CCCCN)NC(=O)[C@H](CCCCN)NC(=O)[C@H](CC(=O)O)NC(=O)[C@H](Cc1c[nH]c2ccccc12)NC(=O)[C@H](CCC(=O)O)NC(=O)[C@H](CCC(=O)O)NC(=O)[C@H](Cc1c[nH]c2ccccc12)NC(C)=O)[C@@H](C)CC)[C@@H](C)O)[C@@H](C)CC)C(=O)N[C@@H](CCCCN)C(=O)N[C@@H](CCCCN)C(=O)N[C@@H](CO)C(=O)N[C@@H](CCC(=O)O)C(=O)N[C@@H](CCC(=O)O)C(=O)N[C@@H](CO)C(=O)N[C@@H](CCC(N)=O)C(=O)N[C@@H](CCCCN)C(=O)N[C@@H](CCCCN)C(=O)N[C@@H](CC(N)=O)C(=O)N[C@@H](CCC(=O)O)C(=O)N[C@@H](CCC(=O)O)C(=O)N[C@@H](CCC(=O)O)C(=O)N[C@@H](CC(C)C)C(=O)N[C@@H](CCCCN)C(=O)N[C@@H](CCCCN)C(N)=O (Ac-WEEWDKKIEEYTKKIEELIKKSEESQKKNEEELKK-NH2) | 2.5 | 72.4 | 4
3 | CC[C@H](C)[C@H](NC(=O)[C@H](CC(C)C)NC(=O)[C@H](CCC(=O)O)NC(=O)[C@H](CCC(=O)O)NC(=O)[C@@H](NC(=O)[C@H](CCCCN)NC(=O)[C@H](CCCCN)NC(=O)[C@@H](NC(=O)[C@H](Cc1ccc(O)cc1)NC(=O)[C@H](CCC(=O)O)NC(=O)[C@H](CCC(=O)O)NC(=O)[C@@H](NC(=O)[C@H](CCCCN)NC(=O)[C@H](CCCCN)NC(=O)[C@H](CC(=O)O)NC(=O)[C@H](Cc1c[nH]c2ccccc12)NC(=O)[C@H](CCC(=O)O)NC(=O)[C@H](CCC(=O)O)NC(=O)[C@H](Cc1c[nH]c2ccccc12)NC(C)=O)[C@@H](C)CC)[C@@H](C)O)[C@@H](C)CC)C(=O)N[C@@H](CCCCN)C(=O)N[C@@H](CCCCN)C(=O)N[C@@H](CO)C(=O)N[C@@H](CCC(=O)O)C(=O)N[C@@H](CCC(=O)O)C(=O)N[C@H](C(=O)N[C@@H](CCC(N)=O)C(=O)N[C@@H](CCCCN)C(=O)N[C@@H](CCCCN)C(=O)N[C@@H](CC(N)=O)C(=O)N[C@@H](CCC(=O)O)C(=O)N[C@@H](CCC(=O)O)C(=O)N[C@@H](CCC(=O)O)C(=O)N[C@@H](CC(C)C)C(=O)N[C@@H](CCCCN)C(=O)N[C@@H](CCCCN)C(N)=O)[C@@H](C)O (Ac-WEEWDKKIEEYTKKIEELIKKSEETQKKNEEELKK-NH2) | 3.2 | 76.7 | 7.3
4 | CC[C@H](C)[C@H](NC(=O)[C@H](CC(C)C)NC(=O)[C@H](CCC(=O)O)NC(=O)[C@H](CCC(=O)O)NC(=O)[C@@H](NC(=O)[C@H](CCCCN)NC(=O)[C@H](CCCCN)NC(=O)[C@@H](NC(=O)[C@H](Cc1ccc(O)cc1)NC(=O)[C@H](CCC(=O)O)NC(=O)[C@H](CCC(=O)O)NC(=O)[C@@H](NC(=O)[C@H](CCCCN)NC(=O)[C@H](CCCCN)NC(=O)[C@H](CC(=O)O)NC(=O)[C@H](Cc1c[nH]c2ccccc12)NC(=O)[C@H](CCC(=O)O)NC(=O)[C@H](CCC(=O)O)NC(=O)[C@H](Cc1c[nH]c2ccccc12)NC(C)=O)[C@@H](C)CC)[C@@H](C)O)[C@@H](C)CC)C(=O)N[C@@H](CCCCN)C(=O)N[C@@H](CCCCN)C(=O)N[C@@H](CO)C(=O)N[C@@H](CCC(=O)O)C(=O)N[C@@H](CCC(=O)O)C(=O)N[C@@H](Cc1ccccc1)C(=O)N[C@@H](CCC(N)=O)C(=O)N[C@@H](CCCCN)C(=O)N[C@@H](CCCCN)C(=O)N[C@@H](CC(N)=O)C(=O)N[C@@H](CCC(=O)O)C(=O)N[C@@H](CCC(=O)O)C(=O)N[C@@H](CCC(=O)O)C(=O)N[C@@H](CC(C)C)C(=O)N[C@@H](CCCCN)C(=O)N[C@@H](CCCCN)C(N)=O (Ac-WEEWDKKIEEYTKKIEELIKKSEEFQKKNEEELKK-NH2) | 2.6 | 76.7 | 5.7
5 | CC[C@H](C)[C@H](NC(=O)[C@H](CC(C)C)NC(=O)[C@H](CCC(=O)O)NC(=O)[C@H](CCC(=O)O)NC(=O)[C@@H](NC(=O)[C@H](CCCCN)NC(=O)[C@H](CCCCN)NC(=O)[C@@H](NC(=O)[C@H](Cc1ccc(O)cc1)NC(=O)[C@H](CCC(=O)O)NC(=O)[C@H](CCC(=O)O)NC(=O)[C@@H](NC(=O)[C@H](CCCCN)NC(=O)[C@H](CCCCN)NC(=O)[C@H](CC(=O)O)NC(=O)[C@H](Cc1c[nH]c2ccccc12)NC(=O)[C@H](CCC(=O)O)NC(=O)[C@H](CCC(=O)O)NC(=O)[C@H](Cc1c[nH]c2ccccc12)NC(C)=O)[C@@H](C)CC)[C@@H](C)O)[C@@H](C)CC)C(=O)N[C@@H](CCCCN)C(=O)N[C@@H](CCCCN)C(=O)N[C@@H](CO)C(=O)N[C@@H](CCC(=O)O)C(=O)N[C@@H](CCC(=O)O)C(=O)N[C@@H](Cc1c[nH]c2ccccc12)C(=O)N[C@@H](CCC(N)=O)C(=O)N[C@@H](CCCCN)C(=O)N[C@@H](CCCCN)C(=O)N[C@@H](CC(N)=O)C(=O)N[C@@H](CCC(=O)O)C(=O)N[C@@H](CCC(=O)O)C(=O)N[C@@H](CCC(=O)O)C(=O)N[C@@H](CC(C)C)C(=O)N[C@@H](CCCCN)C(=O)N[C@@H](CCCCN)C(N)=O (Ac-WEEWDKKIEEYTKKIEELIKKSEEWQKKNEEELKK-NH2) | 1.7 | 77.1 | 7.1
6 | CC[C@H](C)[C@H](NC(=O)[C@H](CC(C)C)NC(=O)[C@H](CCC(=O)O)NC(=O)[C@H](CCC(=O)O)NC(=O)[C@@H](NC(=O)[C@H](CCCCN)NC(=O)[C@H](CCCCN)NC(=O)[C@@H](NC(=O)[C@H](Cc1ccc(O)cc1)NC(=O)[C@H](CCC(=O)O)NC(=O)[C@H](CCC(=O)O)NC(=O)[C@@H](NC(=O)[C@H](CCCCN)NC(=O)[C@H](CCCCN)NC(=O)[C@H](CC(=O)O)NC(=O)[C@H](Cc1c[nH]c2ccccc12)NC(=O)[C@H](CCC(=O)O)NC(=O)[C@H](CCC(=O)O)NC(=O)[C@H](Cc1c[nH]c2ccccc12)NC(C)=O)[C@@H](C)CC)[C@@H](C)O)[C@@H](C)CC)C(=O)N[C@@H](CCCCN)C(=O)N[C@@H](CCCCN)C(=O)N[C@@H](CO)C(=O)N[C@@H](CCC(=O)O)C(=O)N[C@@H](CCC(=O)O)C(=O)N[C@@H](CC(=O)O)C(=O)N[C@@H](CCC(N)=O)C(=O)N[C@@H](CCCCN)C(=O)N[C@@H](CCCCN)C(=O)N[C@@H](CC(N)=O)C(=O)N[C@@H](CCC(=O)O)C(=O)N[C@@H](CCC(=O)O)C(=O)N[C@@H](CCC(=O)O)C(=O)N[C@@H](CC(C)C)C(=O)N[C@@H](CCCCN)C(=O)N[C@@H](CCCCN)C(N)=O (Ac-WEEWDKKIEEYTKKIEELIKKSEEDQKKNEEELKK-NH2) | 2.9 | 75.1 | 4.5
7 | CC[C@H](C)[C@H](NC(=O)[C@H](CCC(=O)O)NC(=O)[C@H](CCC(=O)O)NC(=O)[C@H](CO)NC(=O)[C@H](CCCCN)NC(=O)[C@H](CCCCN)NC(=O)[C@@H](NC(=O)[C@H](CC(C)C)NC(=O)[C@H](CCC(=O)O)NC(=O)[C@H](CCC(=O)O)NC(=O)[C@@H](NC(=O)[C@H](CCCCN)NC(=O)[C@H](CCCCN)NC(=O)[C@@H](NC(=O)[C@H](Cc1ccc(O)cc1)NC(=O)[C@H](CCC(=O)O)NC(=O)[C@H](CCC(=O)O)NC(=O)[C@@H](NC(=O)[C@H](CCCCN)NC(=O)[C@H](CCCCN)NC(=O)[C@H](CC(=O)O)NC(=O)[C@H](Cc1c[nH]c2ccccc12)NC(=O)[C@H](CCC(=O)O)NC(=O)[C@H](CCC(=O)O)NC(=O)[C@H](Cc1c[nH]c2ccccc12)NC(C)=O)[C@@H](C)CC)[C@@H](C)O)[C@@H](C)CC)[C@@H](C)CC)C(=O)N[C@@H](CCC(N)=O)C(=O)N[C@@H](CCCCN)C(=O)N[C@@H](CCCCN)C(=O)N[C@@H](CC(N)=O)C(=O)N[C@@H](CCC(=O)O)C(=O)N[C@@H](CCC(=O)O)C(=O)N[C@@H](CCC(=O)O)C(=O)N[C@@H](CC(C)C)C(=O)N[C@@H](CCCCN)C(=O)N[C@@H](CCCCN)C(N)=O (Ac-WEEWDKKIEEYTKKIEELIKKSEEIQKKNEEELKK-NH2) | 2.9 | 79.7 | 8.2
